{
  "source": "paper PMC9940649",
  "about": "“Phytochemical Comparison of Medicinal Cannabis Extracts and Study of Their CYP-Mediated Interactions with Coumarinic Oral Anticoagulants” (Medical Cannabis and Cannabinoids, 2023)",
  "key": {"CYP2C9 [1]": {"molecular_target": "T1, CYP2C9 (Homo sapiens, UniProt P11712)", "T1 sequence (P11712 whole entry)": "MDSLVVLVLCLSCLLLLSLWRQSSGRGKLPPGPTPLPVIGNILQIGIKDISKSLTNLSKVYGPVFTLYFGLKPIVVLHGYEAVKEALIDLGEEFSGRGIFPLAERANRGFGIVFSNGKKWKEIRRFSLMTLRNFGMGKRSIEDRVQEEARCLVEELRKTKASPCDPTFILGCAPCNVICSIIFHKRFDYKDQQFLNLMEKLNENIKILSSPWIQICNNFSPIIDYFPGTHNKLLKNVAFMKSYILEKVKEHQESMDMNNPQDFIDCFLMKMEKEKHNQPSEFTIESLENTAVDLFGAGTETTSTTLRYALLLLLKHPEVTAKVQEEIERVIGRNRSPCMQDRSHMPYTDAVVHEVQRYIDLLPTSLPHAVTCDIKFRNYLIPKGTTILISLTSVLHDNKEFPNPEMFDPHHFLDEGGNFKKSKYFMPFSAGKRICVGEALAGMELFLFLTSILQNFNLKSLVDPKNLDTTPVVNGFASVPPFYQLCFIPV", "assay": "in vitro", "conditions": "both, microsomes, pH 7.4", "method": "(§1) Briefly, 96-well incubation plates were prepared by adding inhibitors, substrates, and extracts (all dissolved in ethanol) to the respective wells. The 96-well plates were then placed on a thermoshaker (37°C, 500 rpm) until full evaporation of the solvent. […] HLM were thawed on ice, diluted in 100 mM phosphate buffer (pH 7.4) (final concentration 0.2 mg/mL), and added to the incubation plate that was prepared with the inhibitors and substrates. For preincubation, the plates were shaken at 500 rpm on an orbital shaker for 15 min at 37°C. […] The formation of hydroxylated metabolites was followed using UHPLC-MS/MS quantification with electrospray ionization in positive mode, as described in online supplementary material 2.\n(§2) GraphPad Prism, version 9.0.1, was used for fitting of IC50 curves (inhibitor vs. normalized response, variable slope)."}, "CYP2C9 [2]": {"molecular_target": "T1, CYP2C9", "assay": "in vitro", "conditions": "both, microsomes, pH 7.4", "method": "as §1, §2", "remark": "listed apart in the source"}, "[3]": {"conditions": "at 0.5 mg/mL protein concentration; cited from earlier work"}, "CYP3A4 [4]": {"molecular_target": "T2, CYP3A4 (Homo sapiens, UniProt P08684)", "T2 sequence (P08684 2-503 limits assumed)": "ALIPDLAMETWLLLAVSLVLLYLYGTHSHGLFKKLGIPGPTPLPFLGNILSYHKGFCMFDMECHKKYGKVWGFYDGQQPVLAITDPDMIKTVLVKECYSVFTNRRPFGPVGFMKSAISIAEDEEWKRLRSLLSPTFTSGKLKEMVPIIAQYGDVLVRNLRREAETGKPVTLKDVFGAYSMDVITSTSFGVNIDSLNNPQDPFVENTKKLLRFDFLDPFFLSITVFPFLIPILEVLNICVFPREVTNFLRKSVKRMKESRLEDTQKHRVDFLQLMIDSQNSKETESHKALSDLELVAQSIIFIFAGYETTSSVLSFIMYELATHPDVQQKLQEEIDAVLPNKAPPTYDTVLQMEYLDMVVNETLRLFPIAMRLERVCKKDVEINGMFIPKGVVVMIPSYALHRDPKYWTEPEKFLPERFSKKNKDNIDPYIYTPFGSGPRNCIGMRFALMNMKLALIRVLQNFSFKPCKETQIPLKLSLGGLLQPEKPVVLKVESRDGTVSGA", "assay": "CYP inhibition assay in pooled HLM, specific substrate testosterone", "method": "as §1, §2"}, "CYP2C9 [5]": {"molecular_target": "T1, CYP2C9", "conditions": "read-out: Literature Ki in pooled HLM; substrate warfarin; ref PMID 21356216; cited from earlier work"}, "CYP2C9 [6]": {"molecular_target": "T1, CYP2C9", "assay": "CYP inhibition assay in pooled HLM, specific substrate tolbutamide", "method": "as §1, §2"}, "CYP3A4 [7]": {"molecular_target": "T2, CYP3A4", "conditions": "read-out: Literature IC50 in pooled HLM; substrate testosterone; ref PMID 32587099; cited from earlier work"}},
  "note": "Like-named read-outs stand apart in the source and are kept apart here.",
  "data": [
    {"smiles": "C=C(C)[C@@H]1CCC(C)=C[C@H]1c1c(O)cc(CCCCC)cc1O", "note": "[CBD (pure), cannabidiol]", "values": [
      {"measurement": "IC50 at 15 min", "setting": "CYP2C9 [1]", "value": 47, "unit": "µM"},
      {"measurement": "IC50 at 15 min", "setting": "CYP2C9 [2]", "value": "> 100", "unit": "µM"},
      {"measurement": "fraction unbound", "setting": "[3]", "value": 0.12}
    ]},
    {"smiles": "CCCCCc1cc(O)c2c(c1)OC(C)(C)[C@@H]1CCC(C)=C[C@@H]21", "note": "[THC (pure), Δ9-tetrahydrocannabinol]", "values": [
      {"measurement": "IC50", "setting": "CYP3A4 [4]", "value": 23.6, "unit": "µM"},
      {"measurement": "Ki", "setting": "CYP2C9 [5]", "value": 1.5, "unit": "µM"},
      {"measurement": "IC50 at 15 min", "setting": "CYP2C9 [1]", "value": 6.9, "unit": "µM"},
      {"measurement": "IC50", "setting": "CYP2C9 [6]", "value": 0.081, "unit": "µM"},
      {"measurement": "IC50 at 15 min", "setting": "CYP2C9 [2]", "value": 73.3, "unit": "µM"},
      {"measurement": "IC50", "setting": "CYP3A4 [7]", "value": "26.1 ± 6.78", "unit": "µM"},
      {"measurement": "fraction unbound", "setting": "[3]", "value": 0.05}
    ]}
  ]
}
